US20230145835A1, “Modulators of Alpha-4-beta-7 Integrin and MAdCAM” (48HD Biopharma Inc., priority 2021, published 2023)
Numbered stars: 1 amine (or outer) side, 2 acyl side, 3 side chain; on linkers, the order of the positions; unused ones are H or OH. Bridge positions count the residues as written; N and C are the ends. Peptide text beside a SMILES is read from it. I, II: the chains in the order shown. CO(CH2CH2O)5CH2CH2CO = O=C(CCOCCOCCOCCOCCOCCC(=O)[*:2])[*:1]; X3 = O=C(/C=N/OCCCCCCOc1cc(C[*:2])cc(C[*:3])c1)[*:1]; X1 = O=C(C=NOCCCCCCOc1cc(C[*:2])cc(C[*:3])c1)[*:1]

System: not listed separately
Experiment: Simulated Intestinal Fluid Assay
Settings: FaSSIF, LCMS/MS
Protocol: Studies were carried out in simulated intestinal fluid (SIF) to evaluate the intestinal stability of the peptide molecules of the peptides of the instant disclosure. A Fasted State Simulated Intestinal Fluid (FaSSIF) reagent was prepared according to methods known in the art (including addition of the enzyme pancreatin), to which stock peptide solutions were added, incubated, quenched, and analyzed using LCMS/MS.
Percent remaining at each time point was calculated based on the peak area response ratio of test to compound to internal standard. Half-lives were calculated by fitting to a first-order exponential decay equation using GraphPad.
For `C[C@@H](O)[C@H](NC(=O)[C@H](CC(=O)O)NC(=O)[C@@H]1CCCN1C(=O)[C@H](Cc1ccc(O)cc1)NC(=O)[C@H](CS)NC(=O)[C@H](CC(=O)O)NC(=O)[C@@H](N)CO)C(=O)N[C@@H](Cc1ccc(O)cc1)C(=O)N[C@@H](Cc1c[nH]cn1)C(=O)N[C@@H](CS)C(=O)O` [SEQ ID NO. 13] (H-SDCYPDTYHC-OH), the Comments was “No peak”.

Same assay, conditions: simulated gi fluid
Work on `CC(C)C[C@@H]1NC(=O)[C@@H]2CSCc3cc(cc(c3)OCCCCCCON=CC(=O)N[C@@H](CCCCN)C(=O)N2)CSC[C@@H](C(=O)O)NC(=O)[C@H]([C@@H](C)O)NC(=O)[C@H](CCC(N)=O)NC(=O)[C@H](CCC(=O)O)NC(=O)[C@H](Cc2c[nH]c3ccccc23)NC(=O)CNC1=O` [SEQ ID NO. 20] (KCLGWEQTC-OH; linker N-2-9 via X1) yielded a half-life of 1.36 h. In the case of `O=C(O)CCCc1ccc(N(CCCl)CCCl)cc1` [Chlorambucil, chlorambucil, reference compound], the half-life is reported as 0.627 h. In the case of `CC(C)C[C@@H]1NC(=O)[C@@H]2CCCN2C(=O)[C@H](Cc2c[nH]c3ccccc23)NC(=O)[C@@H]2CCCN2C(=O)[C@@H]2CSCc3cc(cc(c3)OCCCCCCON=CC(=O)N[C@@H](CCC(=O)O)C(=O)N2)CSC[C@@H](C(=O)O)NC(=O)[C@H](CCC(N)=O)NC(=O)[C@@H]2CCCN2C1=O` [SEQ ID NO. 15] (ECPWPLPQC-OH; linker N-2-9 via X1), the half-life is reported as 1.07 h. For `C[C@@H](O)[C@@H]1NC(=O)[C@H](CC(=O)O)NC(=O)[C@@H]2CCCN2C(=O)[C@H](Cc2ccc(O)cc2)NC(=O)[C@@H]2CSCc3cc(cc(c3)OCCCCCCON=CC(=O)N[C@@H](CC(=O)O)C(=O)N2)CSC[C@@H](C(=O)O)NC(=O)[C@H](Cc2c[nH]cn2)NC(=O)[C@H](Cc2ccc(O)cc2)NC1=O` [SEQ ID NO. 16] (DCYPDTYHC-OH; linker N-2-9 via X1), the half-life was 3.45 h. With `CSCC[C@@H]1NC(=O)[C@H](CCCNC(=N)N)NC(=O)CNC(=O)[C@H](Cc2ccc(O)cc2)NC(=O)[C@H](Cc2c[nH]c3ccccc23)NC(=O)[C@H](CCC(N)=O)NC(=O)[C@@H]2CSCc3cc(cc(c3)OCCCCCCON=CC(=O)N[C@@H](C)C(=O)N2)CSC[C@@H](C(=O)O)NC1=O` [SEQ ID NO. 21] (ACQWYGRMC-OH; linker N-2-9 via X1) the half-life was 0.328 h. Work on `CSCC[C@@H]1NC(=O)C=NOCCCCCCOc2cc3cc(c2)CSC[C@H](NC1=O)C(=O)N1CCC[C@H]1C(=O)N[C@@H](CC(C)C)C(=O)N[C@@H](Cc1ccc(O)cc1)C(=O)N[C@@H](CCCCN)C(=O)N[C@@H](C(C)C)C(=O)N[C@@H](Cc1c[nH]cn1)C(=O)N[C@H](C(=O)O)CSC3` [SEQ ID NO. 8] (MCPLYKVHC-OH; linker N-2-9 via X1) yielded a half-life of 0.137 h. `CSCC[C@H](NC(=O)[C@@H](N)CO)C(=O)N[C@H]1CSSC[C@@H](C(=O)O)NC(=O)[C@H](Cc2c[nH]cn2)NC(=O)[C@H](C(C)C)NC(=O)[C@H](CCCCN)NC(=O)[C@H](Cc2ccc(O)cc2)NC(=O)[C@H](CC(C)C)NC(=O)[C@@H]2CCCN2C1=O` [SEQ ID NO. 5] (H-SMCPLYKVHC-OH; disulfide 3-10) showed a half-life of 0.393 h. For `C[C@@H](O)[C@@H]1NC(=O)[C@H](CC(=O)O)NC(=O)[C@@H]2CCCN2C(=O)[C@H](Cc2ccc(O)cc2)NC(=O)[C@@H](NC(=O)[C@H](CC(=O)O)NC(=O)[C@@H](N)CO)CSSC[C@@H](C(N)=O)NC(=O)[C@H](Cc2c[nH]cn2)NC(=O)[C@H](Cc2ccc(O)cc2)NC1=O` [SEQ ID NO. 14] (H-SDCYPDTYHC-NH2; disulfide 3-10), the half-life was 1.32 h. Work on `N=C(N)NCCC[C@@H]1NC(=O)CNC(=O)[C@H](Cc2ccc(O)cc2)NC(=O)[C@H](Cc2c[nH]c3ccccc23)NC(=O)[C@H](Cc2c[nH]cn2)NC(=O)[C@@H]2CSCc3cc(cc(c3)OCCCCCCON=CC(=O)N[C@@H](CCC(N)=O)C(=O)N2)CSC[C@@H](C(=O)O)NC(=O)[C@H](CO)NC1=O` [SEQ ID NO. 19] (QCHWYGRSC-OH; linker N-2-9 via X1) yielded a half-life greater than 8 h. In the case of `CC(C)C[C@@H]1NC(=O)[C@@H]2CSCc3cc(cc(c3)OCCCCCCO/N=C/C(=O)N[C@@H](Cc3ccccc3)C(=O)N2)CSC[C@@H](C(N)=O)NC(=O)[C@H](CO)NC(=O)[C@H](C)NC(=O)[C@H](CCC(=O)O)NC(=O)[C@H](Cc2ccc(O)cc2)NC(=O)CNC1=O` [SEQ ID NO: 22] (FCLGYEASC-NH2; linker N-2-9 via X3), the half-life is reported as 1.2 h.

Target: T1, rh-integrin α4β7/LPAM-1 (Homo sapiens, UniProt P13612+P26010)
T1 sequence (P13612 34-977 limits assumed): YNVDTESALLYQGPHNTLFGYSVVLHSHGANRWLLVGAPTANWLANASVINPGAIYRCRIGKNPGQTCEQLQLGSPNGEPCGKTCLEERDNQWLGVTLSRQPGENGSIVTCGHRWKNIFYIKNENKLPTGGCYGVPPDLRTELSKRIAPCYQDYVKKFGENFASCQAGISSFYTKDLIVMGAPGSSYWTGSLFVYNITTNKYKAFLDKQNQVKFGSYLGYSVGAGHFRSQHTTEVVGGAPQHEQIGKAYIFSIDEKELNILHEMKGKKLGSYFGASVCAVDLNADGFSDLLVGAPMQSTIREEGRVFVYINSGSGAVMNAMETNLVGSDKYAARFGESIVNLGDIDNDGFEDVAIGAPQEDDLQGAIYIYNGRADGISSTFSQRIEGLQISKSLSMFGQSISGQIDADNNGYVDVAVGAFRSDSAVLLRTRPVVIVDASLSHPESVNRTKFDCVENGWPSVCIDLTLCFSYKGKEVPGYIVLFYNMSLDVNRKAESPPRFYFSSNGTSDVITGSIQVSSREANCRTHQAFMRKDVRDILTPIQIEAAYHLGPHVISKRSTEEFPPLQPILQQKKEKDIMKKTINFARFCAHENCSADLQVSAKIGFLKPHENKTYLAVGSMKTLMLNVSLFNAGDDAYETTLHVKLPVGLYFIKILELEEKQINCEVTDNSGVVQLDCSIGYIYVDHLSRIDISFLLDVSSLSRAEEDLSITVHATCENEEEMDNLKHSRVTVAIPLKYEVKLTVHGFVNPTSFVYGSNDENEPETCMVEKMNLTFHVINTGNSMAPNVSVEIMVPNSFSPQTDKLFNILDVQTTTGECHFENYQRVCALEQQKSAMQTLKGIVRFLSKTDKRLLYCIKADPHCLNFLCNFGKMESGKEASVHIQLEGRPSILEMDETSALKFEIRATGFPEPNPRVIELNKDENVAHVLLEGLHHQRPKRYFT
T1 sequence (P26010 20-723 limits assumed): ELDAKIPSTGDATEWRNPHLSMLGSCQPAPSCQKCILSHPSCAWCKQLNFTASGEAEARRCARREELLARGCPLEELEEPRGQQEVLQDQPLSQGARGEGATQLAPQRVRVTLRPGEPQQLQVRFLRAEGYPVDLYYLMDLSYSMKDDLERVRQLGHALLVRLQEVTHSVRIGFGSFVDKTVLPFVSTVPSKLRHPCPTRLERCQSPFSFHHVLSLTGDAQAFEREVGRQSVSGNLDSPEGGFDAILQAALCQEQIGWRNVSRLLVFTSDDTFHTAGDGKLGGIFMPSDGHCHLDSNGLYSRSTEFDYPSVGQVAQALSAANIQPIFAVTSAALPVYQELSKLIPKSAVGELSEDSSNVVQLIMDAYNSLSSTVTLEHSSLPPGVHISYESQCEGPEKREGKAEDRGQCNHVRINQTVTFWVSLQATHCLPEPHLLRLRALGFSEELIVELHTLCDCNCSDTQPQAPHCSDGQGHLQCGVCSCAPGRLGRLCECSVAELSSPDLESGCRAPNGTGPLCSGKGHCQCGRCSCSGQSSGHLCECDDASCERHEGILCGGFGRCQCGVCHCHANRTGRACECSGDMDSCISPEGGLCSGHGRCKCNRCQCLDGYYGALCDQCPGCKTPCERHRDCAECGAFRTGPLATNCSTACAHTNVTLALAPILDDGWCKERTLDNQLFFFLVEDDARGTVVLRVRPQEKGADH
Experiment: α4β7-MadCAM Competition ELISA (Example 4)
Type: binding
Settings: IC50, competition ELISA, 4 μg/mL α4β7 coated, MAdCAM and peptide mixture, 28° C.
Protocol: After washing with wash buffer, 200 μL assay buffer was added to each well and incubated for one hour at 28° C. After another wash with wash buffer, 100 μL of a MAdCAM and peptide mixture in assay buffer was added to each well and incubated for one hour at 28° C., followed by washing with wash buffer.
`C[C@@H](O)[C@@H]1NC(=O)[C@H](CCCCN)NC(=O)[C@H](CO)NC(=O)[C@H](CCC(N)=O)NC(=O)[C@H](Cc2c[nH]c3ccccc23)NC(=O)[C@@H]2CCCN2C(=O)[C@@H]2CSCc3cc(cc(c3)OCCCCCCON=CC(=O)N[C@@H](CC(=O)O)C(=O)N2)CSC[C@@H](C(=O)O)NC1=O` [SEQ ID NO: 95] (DCPWQSKTC-OH; linker N-2-9 via X1) gave an IC50 of 17.7 µM.

Same assay, conditions: Table 3 Representative compounds; inhibition of MAdCAM binding to coated α4β7; read-out: IC50
With `CC(C)C[C@@H]1NC(=O)[C@H]([C@@H](C)O)NC(=O)[C@H](CC(=O)O)NC(=O)[C@H](CO)NC(=O)[C@H](CCCNC(=N)N)NC(=O)[C@@H](N)CSSC[C@@H](C(N)=O)NC1=O` [compound 8] (H-CRSDTLC-NH2; disulfide 1-7) the IC50 was 0.186 µM. Work on `CSCC[C@@H]1NC(=O)[C@@H]2CCCN2C(=O)[C@@H]2CSCc3cc(cc(c3)OCCCCCCO/N=C/C(=O)N[C@@H](CCC(N)=O)C(=O)N2)CSC[C@@H](C(N)=O)NC(=O)[C@H]([C@@H](C)O)NC(=O)[C@@H]2CCCN2C(=O)[C@H](C(C)C)NC(=O)[C@H](CC(=O)O)NC1=O` [compound 28, TSL6- SQCPMDVPTC] (QCPMDVPTC-NH2; linker N-2-9 via X3) yielded an IC50 of 0.672 µM.

Same assay, conditions: competition ELISA, 4 μg/mL α4β7 coated, MAdCAM and peptide mixture, 28° C.; read-out: IC50
Work on `CC[C@H](C)[C@@H]1NC(=O)[C@H](CC(=O)O)NC(=O)[C@H](CCSC)NC(=O)[C@@H]2CCCN2C(=O)[C@@H](NC(=O)[C@H](CCC(N)=O)NC(=O)[C@H](CO)NC(C)=O)CSSC[C@@H](C(=O)O)NC(=O)[C@H]([C@@H](C)O)NC(=O)[C@@H]2CCCN2C1=O` [SEQ ID NO: 111] (Ac-SQCPMDIPTC-OH; disulfide 3-10) yielded an IC50 of 1.7 µM. For `CC[C@H](C)[C@@H]1NC(=O)[C@H](CC(=O)O)NC(=O)[C@H](CCSC)NC(=O)[C@@H]2CCCN2C(=O)[C@@H](NC(=O)[C@H](CCCNC(=N)N)NC(=O)[C@H](CO)NC(C)=O)CSSC[C@@H](C(=O)N[C@@H](CCCCNC(=O)CCOCCOCCOCCOCCOCCC(=O)NCCCC[C@H](NC(=O)[C@@H]2CSSC[C@H](NC(=O)[C@H](CCCNC(=N)N)NC(=O)[C@H](CO)NC(C)=O)C(=O)N3CCC[C@H]3C(=O)N[C@@H](CCSC)C(=O)N[C@@H](CC(=O)O)C(=O)N[C@@H]([C@@H](C)CC)C(=O)N[C@@H](C)C(=O)NCC(=O)N[C@@H](CCC(=O)O)C(=O)N2)C(N)=O)C(N)=O)NC(=O)[C@H](CCC(=O)O)NC(=O)CNC(=O)[C@H](C)NC1=O` [SEQ ID NO: 109] (I: Ac-SRCPMDIAGECK-NH2 / II: Ac-SRCPMDIAGECK-NH2; disulfide I:3-I:11, II:3-II:11; linker I:12-II:12 via CO(CH2CH2O)5CH2CH2CO), the IC50 was 1.73 µM.
